In this experiment the test system is cysteine cathepsins. The experiment can be described thus: inhibition of probe labeling in living RAW cells by JPM-OEt pretreatment. The experiment is classed as cell-based, mouse. As to conditions: JPM-OEt pre-treatment (50 μM, 1 hr). Here is the method: RAW cells were cultured in DMEM (GIBCO) supplemented with 10% fetal bovine serum (FBS; GIBCO), 100 units/mL penicillin and 100 μg/mL streptomycin (GIBCO). 4T1 cells (ATCC) were cultured in RPMI (GIBCO) supplemented with 10% fetal bovine serum (FBS; GIBCO), 100 units/mL penicillin and 100 μg/mL streptomycin (GIBCO). All cells were cultured in a 5% CO2 humidified incubator at 37° C. For intact cell labeling, cells were exposed to probe (500× in DMSO) in culture media and incubated for 2 hr at 37° C., unless stated otherwise. Where indicated the cells were preincubated for 1 hr with the inhibitor JPM-OEt (500× in DMSO) or exposed to mouse serum (1 μl probe stock solution in DMSO added to 9 μl serum) for 4 hr before addition to the cells. After labeling, the cells were washed with PBS and resuspended in hypotonic lysis buffer (50 mM PIPES pH 7.4, 10 mM KCl, 5 mM MgCl2, 2 mM EDTA, 4 mM DTT, and 1% NP-40) and put on ice for 15 min, centrifuged at 4° C. for 30 min and supernatants were collected, and protein concentration was determined using a BCA kit (pierce). […] Labeling intensities were quantified using Image J software. […] After 15 min on ice and centrifugation at 4° C. for 30 min the supernatants were collected, and protein concentration was determined using a BCA kit (pierce). […] 4× SDS-sample buffer was added and the protein was denatured for 3 min at 100° C. and analyzed as described above. […]

As to JPM-OEt, the “blocking of probe labeling” value is given as “more than 90%”.
